Data: PMC6949113, “Preclinical evaluation of AT-527, a novel guanosine nucleotide prodrug with potent, pan-genotypic activity against hepatitis C virus” (PLoS ONE, 2020)
Values joined by “and” are separate entries in the source; they are usually repeats but may differ in a detail not shown here. Equal entries are not always repeated. Marks after values point to notes of the source that are not given here.

Columns and labels:
[1] = Intracellular metabolism in human hepatocytes; assay type: in vitro ADME; conditions: human hepatocytes
Protocol: (§1) Hepatocytes. […] Cryopreserved male mouse (CD1), and fresh male Beagle dog and male cynomolgus monkey hepatocytes were obtained from BioreclamationIVT (Baltimore, MD) and were similarly plated with Matrigel in 6- or 24-well plates and maintained overnight in InVitroGRO™HI medium with Torpedo™ antibiotic (BioreclamationIVT). The protocol described above for measuring AT-511 and its metabolites in Huh-7 cells was repeated with the five different hepatocytes. Untreated cells were collected at 24 h, and the protein content of the cell lysates were determined using a bicinchoninic acid protein assay kit to assess the number of cells in each incubation. Separately, plated human hepatocytes were incubated for 6 h with 100 μM AT-511, followed by washout periods of 0, 2, 6, 18 and 30 h.
(§2) S3 Protocol. LC-MS/MS analysis of AT-511 and metabolites in cultured cells. The supernatant extracts of each hepatocyte and Huh-7 cell incubation were separately analyzed by four different LC-MS/MS methods for quantitation of phosphoramidates, nucleosides, monophosphates, and triphosphates (methods 1, 2, 3 and 4, respectively), using synthetic reference standards of actually and potentially present compounds and using structurally related analogs as internal standards. Briefly, a Luna PFP (2), 5 µm, 100 x 4.6 mm column and an AB Sciex API-6500 mass spectrometer (ESI positive ion, MRM mode) were used for methods 1-3 and an XBridge Oligonucleotide, BEH C18, 2.5 µm, 50 x 2.1 mm column and a Thermo QE Plus mass spectrometer (electrospray, negative ion mode) were used for method 4. For methods 1 and 2, mobile phases A (10 mM ammonium acetate in water) and B (acetonitrile:methanol, 1:1, v/v) were used to elute samples (5 µL) at 1 mL/min with 15% B for 1.5 min followed by a linear gradient to 75% B over 1 min (method 1) or with 54% B for 1.3 min followed by a linear gradient to 90% B over 1.2 min. Method 3 was the same except mobile phase A was 0.3% acetic acid in water, […] and samples were eluted with 3% B for 3 min followed by a linear gradient to 55% B over 1.2 min. For method 4, mobile phase A (3 mM ammonium formate with 10 mM dimethylhexylamine (DMHA) in water) and mobile phase B (3 mM ammonium formate with 10 mM DMHA in acetonitrile:water, 1:1, v/v) were used to elute samples at 0.4 mL/min with 0% B for 1.5 min followed by a linear gradient to 100% B over 2 min and ending with an isocratic elution for 0.5 min at 100% B.

[2] = Intracellular metabolism in dog hepatocytes; assay type: in vitro ADME, Beagle dog
Protocol: as §1, §2

[3] = Intracellular metabolism in mouse hepatocytes; assay type: in vitro ADME, mouse (CD1)
Protocol: as §1, §2

[4] = Monkey PK study, liver and heart tissue levels; assay type: in vivo, cynomolgus monkey; conditions: monkey; for Mean Concentration at 4 hr Postdose, Heart: footnoted values extrapolated below LLOQ
Source text: Monkey PK study. Male non-naïve cynomolgus monkeys were obtained from Hainan Jingang Laboratory Animal Co., Ltd. (Hainan, China), group housed during the 5-day acclimation period or individually housed during the study in stainless steel mesh cages, provided ad libitum access to RO water, fed twice daily (~120 g Certified Monkey Diet daily; Beijing Vital Keao Feed Co., Ltd., Beijing, China) and given daily treats of fresh fruit. Additional environmental enrichment included classical music and cartoons. Three groups of 5 monkeys each were administered 30, 100 or 300 mg/kg AT-527 as a powder filled in empty porcine hard gelatin capsules (size 0). The monkeys were fasted overnight prior to dosing and fed 4 h after dosing. Three dosages were selected to provide assessments of dose proportionality, the top two representing potential doses for a repeated oral dose toxicity study in monkeys, and the lowest predicted to be more therapeutically relevant. A pill gun was used to place the capsule beyond the root of the animals’ tongues and their mouths were held loosely closed for approximately 30 sec to allow them to move the jaw and swallow the capsule. Immediately following capsule administration, 20 mL of water was given by mouth and then the mouth was opened to ensure the capsule was swallowed. Blood samples (~0.6 mL) were collected up to 72 h from three animals per dose group, and up to 4 h from the remaining two animals in each group, at the same time points described for rats. […] Blood samples were collected with a syringe from a peripheral blood vessel from restrained, non-sedated animals, immediately transferred to pre-chilled tubes containing ~1 mg K2EDTA•2H20 and 20 μL of 5 mM dichlorvos solution, mixed and placed on ice until plasma was prepared by centrifugation as described for rats. Immediately after centrifugation, plasma samples were extracted with 4 volumes ISS2, and the supernatants were clarified by centrifugation (12,000 rpm, 10 min, 4°C) and stored at ≤ -60°C until analyzed by LC-MS/MS as described below. After the 4-hr blood collection, two monkeys per dose group were anesthetized with intravenous injection of pentobarbital sodium (60 mg/kg) and then euthanized as described for rats. […] All analytes were quantitated by LC-MS/MS as described below.
For the analysis of AT-9010 in rat tissue homogenate supernatant, aliquots were diluted 1:2 with water and injected onto an Agilent Zorbax Extend C18 5 μm, 2.1 × 50 mm column and a Sciex API 4000 mass spectrometer (ESI positive ion, MRM mode). Mobile phases A (0.001% ammonia and 0.18 mM DBAA in water (1:1, v/v) and B (10 mM dimethylhexylamine (DMHA) and 3 mM AA in 50% ACN in water) were used to elute samples (60 μL) at 0.7 mL/min with 2% B for 0.8 min followed by a linear gradient to 30% B over 0.4 min, isocratic elution at 30% B for 0.4 min, a linear gradient to 95% B over 0.4 min, and ending with 95% B for 0.4 min. The analysis of AT-9010 in monkey tissue homogenate supernatant was the same except the sample injection volume was 20 μL. Attempts to measure tissue levels of other potentially formed TPs, including 2,6-diaminopurine-2’-F-2’-C-methylribosyl-5’-triphosphate and 2-amino-6-methylaminopurine-2’-F-2’-C-methylribosyl-5’-triphosphate (M2-TP), also used this method.
For the analysis of M2 and M3 in monkey tissue homogenate supernatant, aliquots were diluted 1:3 with water and injected onto an Acuity HSS T3 1.8 μm, 2.1 × 50 mm column and a Sciex API 6500 mass spectrometer (ESI positive ion, MRM mode). Mobile phases A (0.3% FA and 10 mM AA in water and B (0.3% FA and 10 mM AA in 95% ACN in water) were used to elute samples (1 μL) at 0.6 mL/min with 0% B for 0.4 min followed by linear gradients to 30% B over 0.5 min and to 95% B over 0.2 min, ending with isocratic elution at 95% B for 0.4 min.

SMILES	intracellular levels of nucleoside metabolites ([1]; low to undetectable)	intracellular levels of nucleoside metabolites ([2]; low to undetectable)	intracellular levels of nucleoside metabolites ([3]; low to undetectable)	Mean Concentration at 4 hr Postdose, Liver ([4]; AT-527 30 mg/kg oral)	Liver/Heart Ratio ([4]; AT-527 30 mg/kg oral, 4 h)	Mean Concentration at 4 hr Postdose, Heart ([4]; AT-527 30 mg/kg oral)	Mean Concentration at 4 hr Postdose, Liver ([4]; AT-527 100 mg/kg oral)	Liver/Heart Ratio ([4]; AT-527 100 mg/kg oral, 4 h)	Mean Concentration at 4 hr Postdose, Heart ([4]; AT-527 100 mg/kg oral)	Mean Concentration at 4 hr Postdose, Liver ([4]; AT-527 300 mg/kg oral)	Liver/Heart Ratio ([4]; AT-527 300 mg/kg oral, 4 h)	Mean Concentration at 4 hr Postdose, Heart ([4]; AT-527 300 mg/kg oral)	AUC0-24, intracellular ([1]; 10 μM AT-511)	Cmax, intracellular ([1]; 10 μM AT-511, 0-24 h)	AUC0-24, intracellular ([2]; 10 μM AT-511)	Cmax, intracellular ([2]; 10 μM AT-511, 0-24 h)	AUC0-24, intracellular ([3]; 10 μM AT-511)	Cmax, intracellular ([3]; 10 μM AT-511, 0-24 h)	fold higher mean liver concentration than parent phosphoramidate ([4]; 30 mg/kg, 4 h)
C[C@@]1(F)[C@H](O)[C@@H](CO)O[C@H]1n1cnc2c(=O)[nH]c(N)nc21 [AT-273]	< 10 pmol/10^6 cells	< 10 pmol/10^6 cells	< 10 pmol/10^6 cells	267 pmol/g	3.0	88.5 pmol/g	672 pmol/g	2.9	229 pmol/g	939 pmol/g	2.1	444 pmol/g							
C[C@@]1(F)[C@H](O)[C@@H](COP(=O)(O)OP(=O)(O)OP(=O)(O)O)O[C@H]1n1cnc2c(=O)[nH]c(N)nc21 [AT-9010]				545 ± 349 pmol/g and 545 pmol/g	11^b	51.2^b pmol/g	1890 ± 519 pmol/g and 1890 pmol/g	31^b	61.8^b pmol/g	968 pmol/g		55.3^b pmol/g	1363 pmol*h/10^6 cells	69.2 ± 8.8 pmol/10^6 cells	229 pmol*h/10^6 cells	15.4 ± 6.6 pmol/10^6 cells	1177 pmol*h/10^6 cells	85.4 ± 0.4 pmol/10^6 cells	34 fold
